The target in the test is T1, Recombinant human renin (Homo sapiens, UniProt P00797).
T1 construct: isolate the active form (residues 67-406); made in house
T1 sequence (P00797 67-406): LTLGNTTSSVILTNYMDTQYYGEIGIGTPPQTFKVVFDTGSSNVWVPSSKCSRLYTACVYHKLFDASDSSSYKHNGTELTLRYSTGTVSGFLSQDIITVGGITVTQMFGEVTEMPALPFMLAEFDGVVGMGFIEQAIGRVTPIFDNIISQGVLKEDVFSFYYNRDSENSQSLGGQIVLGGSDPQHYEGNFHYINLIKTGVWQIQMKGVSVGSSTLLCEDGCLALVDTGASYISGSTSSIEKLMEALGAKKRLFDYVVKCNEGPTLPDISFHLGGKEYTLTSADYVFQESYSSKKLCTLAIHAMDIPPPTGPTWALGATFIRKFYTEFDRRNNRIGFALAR
In words: In vitro enzymatic activity assay of renin inhibitors (fluorogenic peptide substrate). In kind it is biochemical. The following applies: recombinant human renin 3 nM, 1 μM substrate QXL520/HiLyteFluo488 peptide, pH 7.4, 37° C., fluorescence; values given as ranges; read-out: IC50 of Exemplified Compounds Against Renin, IC50. The text has this: Test compounds in varying concentrations may be reacted with recombinant human renin in the presence of substrate, e.g., QXL520-γ-Abu-Ile-His-Pro-Phe-His-Leu-Val-Ile-His-Thr-Lys (HiLyteFluo488)-Arg-OH (Anaspec, San Jose, Calif.). The reaction can be followed kinetically using fluorescence (excitation λ=485 nm; emission λ=538 nm). Inhibition constants (IC50) may be calculated by non-linear curve fitting of the compound concentrations and fluorescence intensities to the standard IC50 equation.
Solutions of test compounds in varying concentrations (≦2 mM final concentration) are prepared in dimethyl sulfoxide (DMSO) and then diluted into assay buffer comprising 50 mM Hepes, 1 mM EDTA, 1 mM DTT, 0.1 mg/ml BSA, 0.01% Brij35, pH 7.4. Alternatively, the assay can be performed with a high BSA concentration, wherein the buffer contains an additional 2% BSA.
Recombinant human renin (3 nM final concentration) is added to the dilutions and pre-incubated with the compounds for 10 minutes at 37° C. As described in Examples A-C above, human renin can be obtained by expressing preprorenin (residue 1-406) in mammalian cells, treating the prorenin (residues 24-406) contained in the culture supernatant with trypsin, and isolate the active form (residues 67-406). After pre-incubation, the reaction is initiated with 1 μM of substrate QXL520-γ-Abu-Ile-His-Pro-Phe-His-Leu-Val-Ile-His-Thr-Lys (HiLyteFluo488)-Arg-OH (Anaspec, San Jose, Calif.). The final DMSO in the assay is 5%. The total volume of the reaction mixture is 20 μL, which can be placed on Greiner 384-well small volume plates.
Renin activity may be determined via fluorescence (excitation λ=485 nm; emission λ=538 nm), e.g., on a Molecular Devices SPECTROmax GEMINI XPS. The fluorescence intensity is determined upon the addition of substrate and determined again after incubation at 37° C. for one hour. The fluorescence intensity of a blank (no inhibition) using vehicle alone is also determined. Renin activity is linearly proportional to the change in fluorescence observed (final−initial).
The percent inhibition of renin at a given compound concentration is defined as:
100%×[1−(Fcompound/Fblank)]
where Fcompound is the observed fluorescence at a given concentration of test compound and Fblank is the observed fluorescence in the presence of vehicle alone.
The pIC50 value (negative log of the molar concentration of the compound that produces 50% inhibition) of a test compound is calculated by non-linear least squares curve fitting of the equation:
Percent Inhibition=100%/(1+(10^−pIC50/10^log [I]))
to percent inhibition versus compound concentration. The 50% inhibitory concentration (IC50) of a test compound is calculated by raising 10 to the negative pIC50 (10^−pIC50).

Where only a bound is given, the exact number is not on record here.

The term IC50 denotes the concentration that inhibits the measured activity by half. Consider `Cc1noc(-c2ccccc2)c1C(=O)N1CCNC[C@H]1Cc1ccccc1` [Example 29, (R)-(2-benzylpiperazin-1-yl)(3-methyl-5-phenylisoxazol-4-yl)methanone], for which the IC50 was in the range of 50 to 100 µM.

As for `O=C(c1ccccc1-c1ccccc1Cl)N1CCNC[C@H]1Cc1ccccc1` [Example 5, ((R)-2-benzylpiperazin-1-yl)(2′-chlorobiphenyl-2-yl)methanone], the IC50 fell in the range of 1 to 50 µM.

Regarding `O=C(c1ccccc1)c1ccccc1C(=O)N1CCNC[C@H]1Cc1ccccc1` [Example 22, (R)-(2-benzoylphenyl)(2-benzylpiperazin-1-yl)methanone], the IC50 lay in the range of 1 to 50 µM.

Take `O=C(c1ccccc1-c1nc2ccccc2s1)N1CCNC[C@H]1Cc1ccccc1` [Example 32, (R)-(2-(benzo[d]thiazol-2-yl)phenyl)(2-benzylpiperazin-1-yl)methanone]: the IC50 was in the range of 1 to 50 µM.

As to `O=C(c1ccc(-c2ccccc2Oc2ccccc2)s1)N1CCNC[C@H]1Cc1ccccc1` [Example 44, (R)-(2-benzylpiperazin-1-yl)(5-(2-phenoxyphenyl)thiophen-2-yl)methanone], the IC50 was 1 to 50 µM.

Consider `O=C(C1CC1c1ccccc1)N1CCNCC1Cc1ccccc1` (stereo in doubt) [Example 2, ((S)-2-benzylpiperazin-1-yl)(2-phenylcyclopropyl)methanone], for which the IC50 is greater than 100 µM.

Consider `Cc1n[nH]c(C)c1-c1ccccc1C(=O)N1CCNC[C@H]1Cc1ccccc1` [Example 28, ((R)-2-benzylpiperazin-1-yl)(2-(3,5-dimethyl-1H-pyrazol-4-yl)phenyl)methanone], for which the half-maximal inhibitory concentration (IC50) is greater than 100 µM.

In the case of `O=C(c1ccccc1-c1ccccc1)N1CCNC[C@H]1Cc1ccccc1` [Example 4, (R)-(2-benzylpiperazin-1-yl)(biphenyl-2-yl)methanone], the IC50 was 1 to 50 µM.

For `O=C(c1ccsc1-c1ccccc1CN1CCOCC1)N1CCNC[C@H]1Cc1ccccc1` [Example 41, ((R)-2-benzylpiperazin-1-yl)(2-(2-(morpholinomethyl)phenyl)-thiophen-3-yl)methanone], the IC50 is 1 to 50 µM.

Regarding `O=C(c1sccc1-c1cnn(Cc2ccccc2)c1)N1CCNC[C@H]1Cc1ccccc1` [Example 18, (R)-(3-(1-benzyl-1H-pyrazol-4-yl)thiophen-2-yl)(2-benzylpiperazin-1-yl)methanone], the IC50 was 1 to 50 µM.

With `O=C(c1ccccc1OCc1ccccc1)N1CCNC[C@H]1Cc1ccccc1` [Example 23, (R)-(2-(benzyloxy)phenyl)(2-benzylpiperazin-1-yl)methanone], the 50% inhibitory concentration (IC50) lay in the range of 1 to 50 µM.

Take `O=C(c1cc(F)ccc1-c1ccccc1Oc1ccccc1)N1CCNC[C@H]1Cc1ccccc1` [Example 16, ((R)-2-benzylpiperazin-1-yl)(4-fluoro-2′-phenoxybiphenyl-2-yl)methanone]: the IC50 lay in the range of 1 to 50 µM.

For the compound `Cc1ccc(-c2ccccc2C(=O)N2CCNC[C@H]2Cc2ccccc2)cc1C` [Example 3, (R)-(2-benzylpiperazin-1-yl)(3′,4′-dimethylbiphenyl-2-yl)methanone], the IC50 was less than 1 µM.

On to `O=C(c1cc(-c2ccc(Cl)cc2)cs1)N1CCNC[C@H]1Cc1ccccc1` [Example 36, (R)-(2-benzylpiperazin-1-yl)(4-(4-chlorophenyl)thiophen-2-yl)methanone], for which the IC50 was 1 to 50 µM.

Turning to `O=C(c1sccc1-c1ccccc1Oc1ccccc1)N1CCNC[C@H]1Cc1ccccc1` [Example 1, ((R)-2-benzylpiperazin-1-yl)(3-(2-phenoxyphenyl)thiophen-2-yl)methanone], the IC50 is less than 1 µM.

As to `O=C(c1nnc(-c2ccccc2-c2ccccc2)o1)N1CCNC[C@H]1Cc1ccccc1` [Example 46, (R)-(2-benzylpiperazin-1-yl)(5-(biphenyl-2-yl)-1,3,4-oxadiazol-2-yl)methanone], the IC50 lay in the range of 1 to 50 µM.

For the compound `O=C(c1ccsc1-c1ccccc1-c1ccccc1)N1CCNC[C@H]1Cc1ccccc1` [Example 19, ((R)-2-benzylpiperazin-1-yl)(2-(biphenyl-2-yl)-thiophen-3-yl)-methanone], the IC50 was in the range of 1 to 50 µM.

In the case of `N#Cc1cccnc1Oc1ccccc1-c1ccsc1C(=O)N1CCNC[C@H]1Cc1ccccc1` [Example 11, 2-(2-(2-((R)-2-benzylpiperazine-1-carbonyl)thiophen-3-yl)phenoxy)nicotinonitrile], the IC50 fell in the range of 1 to 50 µM.

On to `O=C(c1cncn1-c1cccc2ccccc12)N1CCNC[C@H]1Cc1ccccc1` [Example 26, ((R)-2-benzylpiperazin-1-yl)(1-(naphthalen-1-yl)-1H-imidazol-5-yl)methanone], for which the IC50 is greater than 100 µM.

In the case of `CC(=O)NCc1cccnc1Oc1ccccc1-c1ccsc1C(=O)N1CCNC[C@H]1Cc1ccccc1` [Example 40, N-((2-(2-(2-((R)-2-benzylpiperazine-1-carbonyl)thiophen-3-yl)phenoxy)pyridin-3-yl)methyl)acetamide], the IC50 is 1 to 50 µM.

With `CCn1nc(C)c(-c2ccccc2Oc2ccccc2)c1C(=O)N1CCNC[C@H]1Cc1ccccc1` [Example 14, ((R)-2-benzylpiperazin-1-yl)(1-ethyl-3-methyl-4-(2-phenoxyphenyl)-1H-pyrazol-5-yl)methanone], the IC50 is 1 to 50 µM.

As for `Cc1nn(C)c(C(=O)N2CCNC[C@H]2Cc2ccccc2)c1-c1ccccc1Oc1ccccc1` [Example 13, ((R)-2-benzylpiperazin-1-yl)(1,3-dimethyl-4-(2-phenoxyphenyl)-1H-pyrazol-5-yl)methanone], the IC50 is 1 to 50 µM.

In the case of `O=C(c1c(-c2ccccc2Cl)noc1C1CC1)N1CCNC[C@H]1Cc1ccccc1` [Example 33, ((R)-2-benzylpiperazin-1-yl)(3-(2-chlorophenyl)-5-cyclopropylisoxazol-4-yl)methanone], the IC50 was in the range of 1 to 50 µM.

With `O=C(c1nc(-c2cccnc2)sc1-c1ccccc1)N1CCNC[C@H]1Cc1ccccc1` [Example 30, (R)-(2-benzylpiperazin-1-yl)(5-phenyl-2-(pyridin-3-yl)thiazol-4-yl)methanone], the IC50 lay in the range of 1 to 50 µM.

Consider `O=C(c1ccc(-c2ccccc2Oc2ccccc2)o1)N1CCNC[C@H]1Cc1ccccc1` [Example 45, (R)-(2-benzylpiperazin-1-yl)(5-(2-phenoxyphenyl)furan-2-yl)methanone], for which the IC50 is 1 to 50 µM.

For the compound `CC(=O)NCCc1ccccc1Oc1ccccc1-c1ccsc1C(=O)N1CCNC[C@H]1Cc1ccccc1` [Example 39, N-(2-(2-(2-((R)-2-benzylpiperazine-1-carbonyl)thiophen-3-yl)phenoxy)phenethyl)acetamide], the IC50 is less than 1 µM.

In the case of `O=C(c1ncoc1-c1ccccc1)N1CCNC[C@H]1Cc1ccccc1` [Example 7, (R)-(2-benzylpiperazin-1-yl)(5-phenyloxazol-4-yl)methanone], the IC50 was 1 to 50 µM.

`Cn1cc(-c2ccccc2Oc2ccccc2)c(C(=O)N2CCNC[C@H]2Cc2ccccc2)n1` [Example 17, ((R)-2-benzylpiperazin-1-yl)(1-methyl-4-(2-phenoxyphenyl)-1H-pyrazol-3-yl)methanone]: the IC50 was less than 1 µM.

On to `O=C(c1nccn1-c1ccccc1C(F)(F)F)N1CCNC[C@H]1Cc1ccccc1` [Example 8, ((R)-2-benzylpiperazin-1-yl)(1-(2-(trifluoromethyl)phenyl)-1H-imidazol-2-yl)methanone], for which the IC50 fell in the range of 50 to 100 µM.

With `O=C(c1cncn1-c1ccccc1-c1ccccc1)N1CCNC[C@H]1Cc1ccccc1` [Example 27, ((R)-2-benzylpiperazin-1-yl)(1-(biphenyl-2-yl)-1H-imidazol-5-yl)methanone], the half-maximal inhibitory concentration (IC50) was in the range of 1 to 50 µM.

For the compound `O=C(c1ccnn1-c1ccccc1)N1CCNC[C@H]1Cc1ccccc1` [Example 6, (R)-(2-benzylpiperazin-1-yl)(1-phenyl-1H-pyrazol-5-yl)methanone], the IC50 fell in the range of 1 to 50 µM.

(Values after patent publication US20090105251A1, “Renin inhibitors” (priority 2007, published 2009).)
